According to PubChem BioAssay (NCI):
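Method: 48-hour compound exposure of cells in 96-well plates, five concentrations, linear interpolation of endpoints. TGI is the concentration that stops growth completely.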

Legend:
Assay in all cases: DTP human tumour cell line panel, 48 h
[1] = system: 786-0 renal
[2] = system: A498 renal
[3] = system: A549 NSCLC
[4] = system: ACHN renal
[5] = system: BT-549 breast
[6] = system: CAKI-1 renal
[7] = system: CCRF-CEM leukemia
[8] = system: COLO 205 colon
[9] = system: DU-145 prostate
[10] = system: EKVX NSCLC
[11] = system: HCC-2998 colon
[12] = system: HCT-116 colon
[13] = system: HCT-15 colon
[14] = system: HL-60(TB) leukemia
[15] = system: HOP-62 NSCLC
[16] = system: HOP-92 NSCLC
[17] = system: HS 578T breast
[18] = system: HT29 colon
[19] = system: IGROV1 ovarian
[20] = system: K-562 leukemia
[21] = system: KM12 colon
[22] = system: LOX IMVI melanoma
[23] = system: M14 melanoma
[24] = system: MALME-3M melanoma
[25] = system: MCF7 breast
[26] = system: MDA-MB-231 breast
[27] = system: MDA-MB-435
[28] = system: MDA-N
[29] = system: MOLT-4 leukemia
[30] = system: NCI-H226 lung
[31] = system: NCI-H23 lung
[32] = system: NCI-H460 lung
[33] = system: NCI/ADR-RES ovarian
[34] = system: OVCAR-3 ovarian
[35] = system: OVCAR-4 ovarian
[36] = system: OVCAR-5 ovarian
[37] = system: OVCAR-8 ovarian
[38] = system: PC-3 prostate
[39] = system: RPMI-8226 leukemia
[40] = system: RXF 393 renal
[41] = system: SF-268 CNS
[42] = system: SF-295 CNS
[43] = system: SF-539 CNS
[44] = system: SK-MEL-2 melanoma
[45] = system: SK-MEL-28 melanoma
[46] = system: SK-MEL-5 melanoma
[47] = system: SK-OV-3 ovarian
[48] = system: SN12C renal
[49] = system: SNB-19 CNS
[50] = system: SNB-75 CNS
[51] = system: SR leukemia
[52] = system: SW-620 colon
[53] = system: T-47D breast
[54] = system: TK-10 renal
[55] = system: U251 CNS
[56] = system: UACC-257 melanoma
[57] = system: UACC-62 melanoma
[58] = system: UO-31 renal
[59] = system: DLD-1 colon
[60] = system: DMS 114 small cell lung
[61] = system: DMS 273 small cell lung
[62] = system: HOP-18 NSCLC
[63] = system: KM20L2 colon
[64] = system: LXFL 529 NSCLC
[65] = system: M19-MEL melanoma
[66] = system: NCI-H522 lung

CC(=O)CC(=O)N1CCOC1=O gave a TGI [1] of over 10 µM, a TGI [2] of over 10 µM and a TGI [3] of over 10 µM. For the same compound, the TGI [4] was over 10 µM, the TGI [5] was over 10 µM and the TGI [6] was over 10 µM. For the same compound, the TGI [7] was over 10 µM, the TGI [8] was over 10 µM and the TGI [9] was over 10 µM. The TGI [10] was over 10 µM, the TGI [11] was over 10 µM and the TGI [12] was over 10 µM. The TGI [13] was over 10 µM, the TGI [14] was over 10 µM and the TGI [15] was over 10 µM. It also gave a TGI [16] of over 10 µM, a TGI [17] of over 10 µM and a TGI [18] of over 10 µM. It also gave a TGI [19] of over 10 µM, a TGI [20] of over 10 µM and a TGI [21] of over 10 µM. The TGI [22] was over 10 µM, the TGI [23] was over 10 µM and the TGI [24] was over 10 µM. It also gave a TGI [25] of over 10 µM, a TGI [26] of over 10 µM and a TGI [27] of over 10 µM. The TGI [28] was over 10 µM, the TGI [29] was over 10 µM and the TGI [30] was over 10 µM. It also gave a TGI [31] of over 10 µM, a TGI [32] of over 10 µM and a TGI [33] of over 10 µM. The TGI [34] was over 10 µM, the TGI [35] was over 10 µM and the TGI [36] was over 10 µM. It also gave a TGI [37] of over 10 µM, a TGI [38] of over 10 µM and a TGI [39] of over 10 µM. The TGI [40] was over 10 µM, the TGI [41] was over 10 µM and the TGI [42] was over 10 µM. The TGI [43] was over 10 µM, the TGI [44] was over 10 µM and the TGI [45] was over 10 µM. For the same compound, the TGI [46] was over 10 µM, the TGI [47] was over 10 µM and the TGI [48] was over 10 µM. The TGI [49] was over 10 µM, the TGI [50] was over 10 µM and the TGI [51] was over 10 µM. The TGI [52] was over 10 µM, the TGI [53] was over 10 µM and the TGI [54] was over 10 µM. The TGI [55] was over 10 µM, the TGI [56] was over 10 µM and the TGI [57] was over 10 µM. For the same compound, the TGI [58] was over 10 µM.
Compound CN1OC(CO)CC12C1CC3CC(C1)CC2C3 (configuration not stated) has a TGI [1] of over 100 µM, a TGI [2] of over 100 µM and a TGI [3] of over 100 µM. The TGI [4] was over 100 µM, the TGI [6] was over 100 µM and the TGI [7] was over 100 µM. For the same compound, the TGI [8] was over 100 µM, the TGI [59] was over 100 µM and the TGI [60] was over 100 µM. The TGI [61] was over 100 µM, the TGI [11] was over 100 µM and the TGI [12] was over 100 µM. For the same compound, the TGI [13] was over 100 µM, the TGI [14] was over 100 µM and the TGI [62] was over 100 µM. The TGI [15] was over 100 µM, the TGI [16] was over 100 µM and the TGI [18] was over 100 µM. It also gave a TGI [19] of over 100 µM, a TGI [20] of over 100 µM and a TGI [21] of over 100 µM. The TGI [63] was over 100 µM, the TGI [22] was over 100 µM and the TGI [64] was over 100 µM. For the same compound, the TGI [23] was over 100 µM, the TGI [65] was over 100 µM and the TGI [24] was over 100 µM. The TGI [29] was over 100 µM, the TGI [31] was over 100 µM and the TGI [32] was over 100 µM. It also gave a TGI [66] of over 100 µM, a TGI [34] of over 100 µM and a TGI [35] of over 100 µM. It also gave a TGI [36] of over 100 µM, a TGI [37] of over 100 µM and a TGI [39] of over 100 µM. For the same compound, the TGI [40] was over 100 µM, the TGI [41] was over 100 µM and the TGI [42] was over 100 µM. It also gave a TGI [43] of over 100 µM, a TGI [44] of over 100 µM and a TGI [45] of over 100 µM. For the same compound, the TGI [46] was over 100 µM, the TGI [47] was over 100 µM and the TGI [48] was over 100 µM. It also gave a TGI [49] of over 100 µM, a TGI [50] of over 100 µM and a TGI [51] of over 100 µM. For the same compound, the TGI [52] was over 100 µM, the TGI [54] was over 100 µM and the TGI [55] was over 100 µM. The TGI [57] was over 100 µM and the TGI [58] was over 100 µM.
In the case of Cc1ccc(S(=O)(=O)NCc2cccc([N+](=O)[O-])c2)cc1, the TGI [1] is reported as over 100 µM, the TGI [2] is reported as over 100 µM and the TGI [3] is reported as over 100 µM. For the same compound, the TGI [4] was over 100 µM, the TGI [5] was over 100 µM and the TGI [6] was over 100 µM. The TGI [7] was over 100 µM, the TGI [8] was over 100 µM and the TGI [9] was over 100 µM. For the same compound, the TGI [10] was over 100 µM, the TGI [12] was over 100 µM and the TGI [13] was over 100 µM. The TGI [14] was 90.3 µM, the TGI [15] was over 100 µM and the TGI [16] was over 100 µM. The TGI [17] was over 100 µM, the TGI [18] was over 100 µM and the TGI [19] was over 100 µM. The TGI [21] was over 100 µM, the TGI [22] was over 100 µM and the TGI [23] was over 100 µM. It also gave a TGI [24] of over 100 µM, a TGI [25] of over 100 µM and a TGI [26] of over 100 µM. The TGI [27] was over 100 µM, the TGI [28] was over 100 µM and the TGI [29] was over 100 µM. It also gave a TGI [30] of over 100 µM, a TGI [31] of over 100 µM and a TGI [32] of over 100 µM. The TGI [66] was over 100 µM, the TGI [33] was over 100 µM and the TGI [34] was over 100 µM. The TGI [35] was over 100 µM, the TGI [36] was over 100 µM and the TGI [37] was over 100 µM. It also gave a TGI [38] of over 100 µM, a TGI [39] of over 100 µM and a TGI [40] of over 100 µM. For the same compound, the TGI [41] was over 100 µM, the TGI [42] was over 100 µM and the TGI [43] was over 100 µM. The TGI [44] was over 100 µM, the TGI [45] was over 100 µM and the TGI [46] was over 100 µM. For the same compound, the TGI [47] was over 100 µM, the TGI [48] was over 100 µM and the TGI [49] was over 100 µM. It also gave a TGI [50] of over 100 µM, a TGI [51] of over 100 µM and a TGI [52] of over 100 µM. For the same compound, the TGI [53] was over 100 µM, the TGI [54] was over 100 µM and the TGI [55] was over 100 µM. The TGI [56] was over 100 µM and the TGI [57] was over 100 µM.
